In US20080114055A1, “Thioxanthone Compounds to Reverse Weight Loss” (ZOLTAN LABORATORIES LLC, priority 2006, published 2008):

Tests used:
[1] = tested on: HL60 human leukemia tumor; assay: HL60 human leukemia tumor model: body, total and tumor weight; type: in vivo, mice; conditions: for Body weight: total minus tumor weight
Text: Tumors were developed in a homozygous line of C.B.-171 cr scid/scid adult female mice kept at specified pathogen free (SPF) hygienic levels. Suspensions of HL-60 human leukemia cells (about 1,500,000 cells), or approximately 0.1 cm^3 volume of tumor tissue derived from HT-168 human melanoma, PC-3 human prostate adenocarcinoma, or T47D human breast carcinoma were implanted subcutaneously to develop the tumors. After 12-18 days when the tumor-bearing mice were first treated, the size of the tumors was in the 0.2-0.4 cm^3 range. CCcompound1 was dissolved in physiological (0.9%) saline (NaCl) and applied subcutaneously in 50 μl volume. Tumor volume was determined by calipers in three dimensions; this technique is well known to one having ordinary skill in the art. Tumor volume was calculated according to the generally accepted formula: V=a^2×b×π/6, where “a” and “b” mean the shortest and longest diameter, respectively, of the measured tumor. Tumor weight was calculated from tumor volume using a 0.7 (tumor weight) : 1 (tumor volume) ratio. Total weight and tumor volume/weight was measured regularly (at least every second day). In all tumor experiments, each treatment group consisted of five animals. Accordingly, all data are the average of five independent determinations (one determination for each animal). HL60 human tumors were developed in mice as described above. Treatments with CCcompound1 were started on day 18 after tumor implantation and conducted for the first five days and then for three days with two treatment-free days inserted between the two series of treatments. The results, shown in TABLE 2, indicate that between day 18 and 27 after tumor implantation, the leukemia tumor caused about 4-g loss in body weight.

[2] = tested on: HT-168 human melanoma tumor; assay: HT-168 human melanoma model: body, total and tumor weight; type: in vivo, mice; conditions: for Body weight: total minus tumor weight
Text: Tumors were developed in a homozygous line of C.B.-171 cr scid/scid adult female mice kept at specified pathogen free (SPF) hygienic levels. Suspensions of HL-60 human leukemia cells (about 1,500,000 cells), or approximately 0.1 cm^3 volume of tumor tissue derived from HT-168 human melanoma, PC-3 human prostate adenocarcinoma, or T47D human breast carcinoma were implanted subcutaneously to develop the tumors. After 12-18 days when the tumor-bearing mice were first treated, the size of the tumors was in the 0.2-0.4 cm^3 range. CCcompound1 was dissolved in physiological (0.9%) saline (NaCl) and applied subcutaneously in 50 μl volume. Tumor volume was determined by calipers in three dimensions; this technique is well known to one having ordinary skill in the art. Tumor volume was calculated according to the generally accepted formula: V=a^2×b×π/6, where “a” and “b” mean the shortest and longest diameter, respectively, of the measured tumor. Tumor weight was calculated from tumor volume using a 0.7 (tumor weight) : 1 (tumor volume) ratio. Total weight and tumor volume/weight was measured regularly (at least every second day). In all tumor experiments, each treatment group consisted of five animals. Accordingly, all data are the average of five independent determinations (one determination for each animal). HT-168 human tumors were developed in mice as described above. Treatments with CCcompound1 were started on day 17 after tumor implantation and conducted for the first five days and then for another five days with two treatment-free days inserted between the two series of treatments. The results, shown in TABLE 3, indicate that between day 17 and 30 after tumor implantation, the melanoma tumor caused a 2.7-g loss in body weight.

[3] = tested on: PC-3 human prostate tumor; assay: PC-3 human prostate cancer model: body, total and tumor weight; type: in vivo, mice; conditions: for Body weight: total minus tumor weight
Text: Tumors were developed in a homozygous line of C.B.-171 cr scid/scid adult female mice kept at specified pathogen free (SPF) hygienic levels. Suspensions of HL-60 human leukemia cells (about 1,500,000 cells), or approximately 0.1 cm^3 volume of tumor tissue derived from HT-168 human melanoma, PC-3 human prostate adenocarcinoma, or T47D human breast carcinoma were implanted subcutaneously to develop the tumors. After 12-18 days when the tumor-bearing mice were first treated, the size of the tumors was in the 0.2-0.4 cm^3 range. CCcompound1 was dissolved in physiological (0.9%) saline (NaCl) and applied subcutaneously in 50 μl volume. Tumor volume was determined by calipers in three dimensions; this technique is well known to one having ordinary skill in the art. Tumor volume was calculated according to the generally accepted formula: V=a^2×b×π/6, where “a” and “b” mean the shortest and longest diameter, respectively, of the measured tumor. Tumor weight was calculated from tumor volume using a 0.7 (tumor weight) : 1 (tumor volume) ratio. Total weight and tumor volume/weight was measured regularly (at least every second day). In all tumor experiments, each treatment group consisted of five animals. Accordingly, all data are the average of five independent determinations (one determination for each animal). PC-3 human tumors were developed in mice as described above. Treatments with CCcompound1 were started on day 12 after tumor implantation and conducted for five days and then for another three days with two treatment-free days inserted between the two series of treatments. The results, shown in TABLE 4, indicate that between day 12 and 21 after tumor implantation, the prostate tumor caused about 5.7-g loss in body weight which corresponds to about 22% reduction.

[4] = tested on: T47D human breast tumor; assay: T47D human estrogen receptor positive breast cancer model: body, total and tumor weight; type: in vivo, mice; conditions: for Body weight: total minus tumor weight
Text: Tumors were developed in a homozygous line of C.B.-171 cr scid/scid adult female mice kept at specified pathogen free (SPF) hygienic levels. Suspensions of HL-60 human leukemia cells (about 1,500,000 cells), or approximately 0.1 cm^3 volume of tumor tissue derived from HT-168 human melanoma, PC-3 human prostate adenocarcinoma, or T47D human breast carcinoma were implanted subcutaneously to develop the tumors. After 12-18 days when the tumor-bearing mice were first treated, the size of the tumors was in the 0.2-0.4 cm^3 range. CCcompound1 was dissolved in physiological (0.9%) saline (NaCl) and applied subcutaneously in 50 μl volume. Tumor volume was determined by calipers in three dimensions; this technique is well known to one having ordinary skill in the art. Tumor volume was calculated according to the generally accepted formula: V=a^2×b×π/6, where “a” and “b” mean the shortest and longest diameter, respectively, of the measured tumor. Tumor weight was calculated from tumor volume using a 0.7 (tumor weight) : 1 (tumor volume) ratio. Total weight and tumor volume/weight was measured regularly (at least every second day). In all tumor experiments, each treatment group consisted of five animals. Accordingly, all data are the average of five independent determinations (one determination for each animal). T47D human tumors were developed in mice as described above. Treatments with CCcompound1 were started on day 17 after tumor implantation and conducted for five days and then followed by an additional five days with 2 treatment-free days inserted between the 2 series of treatments. The results, shown in TABLE 5, indicate that between day 17 and 28 after tumor implantation, this breast tumor caused about a 2.5-g loss in body weight. […] Thus, in this human breast tumor model, CCcompound1 is a potent anti-cachectic agent and its effects on body weight are accompanied by significant anti-tumor effects.

[5] = Water solubility; type: physicochemical; conditions: at the concentration used in vivo
[6] = 0.5 mg/kg s.c., day 18 (treatment start)
[7] = 1.0 mg/kg s.c., day 18 (treatment start)
[8] = 2.0 mg/kg s.c., day 18 (treatment start)
[9] = 1.0 mg/kg s.c., day 17 (treatment start)
[10] = 1.0 mg/kg s.c., day 17 after tumor transplantation (treatment start)
[11] = 2.0 mg/kg s.c., day 17 (treatment start)
[12] = 4.0 mg/kg s.c., day 17 (treatment start)
[13] = 1.0 mg/kg s.c., day 12 (treatment start)
[14] = 2.0 mg/kg s.c., day 12 (treatment start)
[15] = 4.0 mg/kg s.c., day 12 (treatment start)

Cc1c(OCC(O)C[N+](C)(C)C)cc2c(=O)c3ccccc3sc2c1C.[Cl-] (centres unmarked) [CCcompound1, [3-(3,4-Dimethyl-9-oxo-9H-thioxanthen-2-yloxy)-2-hydroxypropyl]trimethyl-ammonium chloride]
Tumor weight [1, 6]: 0.7 g
Body weight [1, 6]: 25.5 g
Total weight ([1]; 0.5 mg/kg s.c., day 18 after tumor transplantation (treatment start)): 26.2 g
Tumor weight ([1]; 0.5 mg/kg s.c., day 27): 2.8 g
Body weight ([1]; 0.5 mg/kg s.c., day 27): 24.0 g
Total weight ([1]; 0.5 mg/kg s.c., day 27 after tumor transplantation): 26.8 g
Total weight [1, 7]: 26.2 g
Tumor weight [1, 7]: 0.4 g
Body weight [1, 7]: 25.8 g
Total weight ([1]; 1.0 mg/kg s.c., day 27): 30.3 g
Tumor weight ([1]; 1.0 mg/kg s.c., day 27): 1.9 g
Body weight ([1]; 1.0 mg/kg s.c., day 27): 28.4 g
Total weight [1, 8]: 27.0 g
Tumor weight [1, 8]: 0.5 g
Body weight [1, 8]: 26.5 g
Total weight ([1]; 2.0 mg/kg s.c., day 27): 30.6 g
Tumor weight ([1]; 2.0 mg/kg s.c., day 27): 1.9 g
Body weight ([1]; 2.0 mg/kg s.c., day 27): 28.7 g
Effect on body weight loss ([1]; 0.5-mg/kg, between day 18 and 27): reduced body weight loss
Effect on body weight ([1]; 1-mg/kg, between day 18 and 27): gained weight
Effect on body weight ([1]; 2-mg/kg, between day 18 and 27): gained weight
Reduction of tumor weight ([1]; higher amounts of CCcompound1, day 27): about 45%
Tumor weight [2, 9]: 0.2 g
Body weight [2, 9]: 23.8 g
Total weight [2, 10]: 24.0 g
Tumor weight ([2]; 1.0 mg/kg s.c., day 30): 2.1 g
Body weight ([2]; 1.0 mg/kg s.c., day 30): 25.5 g
Total weight ([2]; 1.0 mg/kg s.c., day 30 after tumor transplantation): 27.6 g
Total weight [2, 11]: 23.1 g
Tumor weight [2, 11]: 0.2 g
Body weight [2, 11]: 22.9 g
Total weight ([2]; 2.0 mg/kg s.c., day 30): 25.8 g
Tumor weight ([2]; 2.0 mg/kg s.c., day 30): 1.8 g
Body weight ([2]; 2.0 mg/kg s.c., day 30): 24.0 g
Total weight [2, 12]: 23.8 g
Tumor weight [2, 12]: 0.2 g
Body weight [2, 12]: 23.6 g
Total weight ([2]; 4.0 mg/kg s.c., day 30): 29.6 g
Tumor weight ([2]; 4.0 mg/kg s.c., day 30): 1.2 g
Body weight ([2]; 4.0 mg/kg s.c., day 30): 28.4 g
Effect on body weight loss ([2]; 1-mg/kg, between day 17 and 30): sufficient to reverse body weight loss
Body weight gain ([2]; 4-mg/kg, between day 17 and 30): ~5 g
Reduction of tumor weight ([2]; 4-mg/kg, day 30): more than 50%
Tumor weight [3, 13]: 0.4 g
Body weight [3, 13]: 25.9 g
Total weight ([3]; 1.0 mg/kg s.c., day 12 after tumor transplantation (treatment start)): 26.3 g
Tumor weight ([3]; 1.0 mg/kg s.c., day 21): 2.2 g
Body weight ([3]; 1.0 mg/kg s.c., day 21): 23.1 g
Total weight ([3]; 1.0 mg/kg s.c., day 21 after tumor transplantation): 25.3 g
Total weight [3, 14]: 26.1 g
Tumor weight [3, 14]: 0.4 g
Body weight [3, 14]: 25.7 g
Total weight ([3]; 2.0 mg/kg s.c., day 21): 28.4 g
Tumor weight ([3]; 2.0 mg/kg s.c., day 21): 1.9 g
Body weight ([3]; 2.0 mg/kg s.c., day 21): 26.5 g
Total weight [3, 15]: 26.9 g
Tumor weight [3, 15]: 0.2 g
Body weight [3, 15]: 26.7 g
Total weight ([3]; 4.0 mg/kg s.c., day 21): 32.4 g
Tumor weight ([3]; 4.0 mg/kg s.c., day 21): 1.4 g
Body weight ([3]; 4.0 mg/kg s.c., day 21): 31.0 g
Effect on body weight loss ([3]; 1-mg/kg, between day 12 and 21): only partially prevented body weight loss
Body weight gain ([3]; 4-mg/kg, between day 12 and 21): 4.3 g
Reduction of tumor weight ([3]; 4-mg/kg, day 21): about 48%
Tumor weight [4, 9]: 0.2 g
Body weight [4, 9]: 26.3 g
Total weight [4, 10]: 26.5 g
Tumor weight ([4]; 1.0 mg/kg s.c., day 28): 1.6 g
Body weight ([4]; 1.0 mg/kg s.c., day 28): 27.7 g
Total weight ([4]; 1.0 mg/kg s.c., day 28 after tumor transplantation): 29.3 g
Total weight [4, 11]: 26.9 g
Tumor weight [4, 11]: 0.2 g
Body weight [4, 11]: 26.7 g
Total weight ([4]; 2.0 mg/kg s.c., day 28): 28.7 g
Tumor weight ([4]; 2.0 mg/kg s.c., day 28): 1.5 g
Body weight ([4]; 2.0 mg/kg s.c., day 28): 27.2 g
Total weight [4, 12]: 27.0 g
Tumor weight [4, 12]: 0.2 g
Body weight [4, 12]: 26.8 g
Total weight ([4]; 4.0 mg/kg s.c., day 28): 30.9 g
Tumor weight ([4]; 4.0 mg/kg s.c., day 28): 1.2 g
Body weight ([4]; 4.0 mg/kg s.c., day 28): 29.7 g
Effect on body weight loss ([4]; 1-mg/kg, between day 17 and 28): fully reversed body weight loss
Body weight gain ([4]; 4-mg/kg, between day 17 and 28): 3.1 g
Reduction of tumor weight ([4]; 4-mg/kg, day 28): about 40%
Water solubility [5]: fully water-soluble
